Measured values taken from patent US9815846B2 (Merck Sharp & Dohme Corp., priority 2014, dated 2017).

These compounds were tested against human TrkA receptor (Homo sapiens (Human), UniProt P04629) (assay: DiscoverX PathHunter TrkA functional assay (NGF-stimulated U2OS cells)). Conditions: U2OS cells expressing human TrkA-PK, Shc1-EA and p75NTR; compound 1 h, then NGF at ~80% of maximal response for 3 h; luminescence.
Sequence of human TrkA receptor (P04629 33-796): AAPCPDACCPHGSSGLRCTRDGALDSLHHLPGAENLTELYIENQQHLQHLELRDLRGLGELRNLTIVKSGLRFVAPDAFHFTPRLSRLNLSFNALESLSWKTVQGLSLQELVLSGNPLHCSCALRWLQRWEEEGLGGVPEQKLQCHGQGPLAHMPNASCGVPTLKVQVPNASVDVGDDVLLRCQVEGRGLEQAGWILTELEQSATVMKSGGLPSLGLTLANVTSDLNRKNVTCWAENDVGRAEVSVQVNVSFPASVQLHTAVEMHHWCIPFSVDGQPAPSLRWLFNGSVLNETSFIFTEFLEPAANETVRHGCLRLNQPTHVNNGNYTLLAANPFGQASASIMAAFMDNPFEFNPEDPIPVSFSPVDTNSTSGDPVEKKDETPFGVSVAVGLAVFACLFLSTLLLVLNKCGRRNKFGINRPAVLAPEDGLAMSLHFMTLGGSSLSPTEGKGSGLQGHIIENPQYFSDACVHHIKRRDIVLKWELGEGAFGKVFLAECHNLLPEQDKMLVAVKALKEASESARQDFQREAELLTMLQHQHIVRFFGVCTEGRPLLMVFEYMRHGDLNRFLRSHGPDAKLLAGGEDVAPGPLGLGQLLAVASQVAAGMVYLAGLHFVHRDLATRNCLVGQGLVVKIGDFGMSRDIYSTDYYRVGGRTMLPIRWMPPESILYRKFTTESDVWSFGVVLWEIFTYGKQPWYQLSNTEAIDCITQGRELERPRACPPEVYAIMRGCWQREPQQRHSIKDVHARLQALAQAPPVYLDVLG
Format: cell-based
In the case of `Cn1ccc(-c2cc(C(=O)Nc3cnc(Cn4cn[nH]c4=O)nc3-c3ccccc3)c(F)cc2C(F)(F)F)n1` [Example 227, 2-fluoro-5-(1-methyl-1H-pyrazol-3-yl)-N-(2-((5-oxo-1,5-dihydro-4H-1,2,4-triazol-4-yl)methyl)-4-phenylpyrimidin-5-yl)-4-(trifluoromethyl)benzamide], the IC50 is reported as 0.24 nM. For `Cn1ccc(-c2cc(C(=O)Nc3cc4c(nc3-c3ccccc3)CCNC4=O)c(F)cc2C(F)(F)F)n1` [Example 152, 2-fluoro-5-(1-methyl-1H-pyrazol-3-yl)-N-(5-oxo-2-phenyl-5,6,7,8-tetrahydro-1,6-naphthyridin-3-yl)-4-(trifluoromethyl)benzamide], the IC50 was 0.069 nM. `Cn1ccc(-c2cc(C(=O)Nc3cnc(Cn4ccnc4)nc3-c3ccccc3)ccc2C(F)(F)F)n1` [Example 224, N-(2-((1H-imidazol-1-yl)methyl)-4-phenylpyrimidin-5-yl)-3-(1-methyl-1H-pyrazol-3-yl)-4-(trifluoromethyl)benzamide] was tested, and the IC50 was 1.6 nM. `CC(=O)N1CCc2nc(-c3ccccc3)c(NC(=O)c3ccc(C(F)(F)F)c(-c4ncccn4)c3)cc2C1` [Example 147, N-(6-acetyl-2-phenyl-5,6,7,8-tetrahydro-1,6-naphthyridin-3-yl)-3-(pyrimidin-2-yl)-4-(trifluoromethyl)benzamide] showed an IC50 of 14 nM. With `Cn1ccc(-c2cc(C(=O)Nc3cnc(CC(=O)NCC4CCOC4)nc3-c3ccccc3)c(F)cc2C(F)(F)F)n1` (stereo not drawn) [Example 112, 2-fluoro-5-(1-methyl-1H-pyrazol-3-yl)-N-(2-(2-oxo-2-(((tetrahydrofuran-3-yl)methyl)amino)ethyl)-4-phenylpyrimidin-5-yl)-4-(trifluoromethyl)benzamide] the IC50 was 6.5 nM. In the case of `Cn1ccc(-c2cc(C(=O)Nc3cnc(CCC(N)=O)nc3-c3ccccc3)c(F)cc2C(F)(F)F)n1` [Example 128, N-(2-(3-Amino-3-oxopropyl)-4-phenylpyrimidin-5-yl)-2-fluoro-5-(1-methyl-1H-pyrazol-3-yl)-4-(trifluoromethyl)benzamide], the IC50 is reported as 0.54 nM. `O=C(Nc1cc2c(nc1-c1ccccc1)CCNC2)c1cc(-c2ccccn2)c(C(F)(F)F)cc1F` [Example 146, 2-fluoro-N-(2-phenyl-5,6,7,8-tetrahydro-1,6-naphthyridin-3-yl)-5-(pyridin-2-yl)-4-(trifluoromethyl)benzamide] was tested, and the IC50 was 13 nM. `Cn1ccc(-c2cc(C(=O)Nc3cnc(CNC(=O)C4CC4)nc3-c3ccccc3)ccc2C(F)(F)F)n1` [Example 51, N-(2-(cyclopropanecarboxamidomethyl)-4-phenylpyrimidin-5-yl)-3-(1-methyl-1H-pyrazol-3-yl)-4-(trifluoromethyl)benzamide] showed an IC50 of 4.9 nM. Work on `Cc1ncc(NC(=O)c2cc(-c3ncccn3)c(C(F)(F)F)cc2F)c(-c2ccccc2)n1` [Example 28, 2-fluoro-N-(2-methyl-4-phenylpyrimidin-5-yl)-5-pyrimidin-2-yl-4-(trifluoromethyl)benzamide] yielded an IC50 of 9.6 nM. Work on `Cn1ccc(-c2cc(C(=O)Nc3cnc(Cn4cccnc4=O)nc3-c3ccccc3)c(F)cc2C(F)(F)F)n1` [Example 225, 2-fluoro-5-(1-methyl-1H-pyrazol-3-yl)-N-(2-((2-oxopyrimidin-1(2H)-yl)methyl)-4-phenylpyrimidin-5-yl)-4-(trifluoromethyl)benzamide] yielded an IC50 of 1.2 nM. `Cn1ccc(-c2cc(C(=O)Nc3cnc(CNC(=O)CS(C)(=O)=O)nc3-c3ccccc3)c(F)cc2C(F)(F)F)n1` [Example 67, 2-fluoro-5-(1-methyl-1H-pyrazol-3-yl)-N-(2-((2-(methylsulfonyl)acetamido)methyl)-4-phenylpyrimidin-5-yl)-4-(trifluoromethyl)benzamide] showed an IC50 of 1.6 nM. In the case of `Cn1ccc(-c2cc(C(=O)Nc3ccc(C4CCNC4=O)nc3-c3ccccc3)ccc2C(F)(F)F)n1` (single isomer, unassigned) [Example 186, (R or S)-3-(1-Methyl-1H-pyrazol-3-yl)-N-(6-(2-oxopyrrolidin-3-yl)-2-phenylpyridin-3-yl)-4-(trifluoromethyl)benzamide], the IC50 is reported as 5 nM. `CC(=O)NCc1cnc(-c2cnc(-c3ccccc3)c(NC(=O)c3cc(-c4ncccn4)c(C(F)(F)F)cc3F)c2)nc1` [Example 170, N-(5-(5-(acetamidomethyl)pyrimidin-2-yl)-2-phenylpyridin-3-yl)-2-fluoro-5-(pyrimidin-2-yl)-4-(trifluoromethyl)benzamide] was tested, and the IC50 was 16 nM. `Cn1ccc(-c2cc(C(=O)Nc3ccc(C(O)CO)nc3-c3ccccc3)c(F)cc2C(F)(F)F)n1` (single isomer, unassigned) [Example 192, (R or S)—N-(6-(1,2-Dihydroxyethyl)-2-phenylpyridin-3-yl)-2-fluoro-5-(1-methyl-1H-pyrazol-3-yl)-4-(trifluoromethyl)benzamide] gave an IC50 of 2.3 nM. With `Cc1ncc(NC(=O)c2cc(-c3ccn(C)n3)c(C(F)(F)F)cc2F)c(-c2ccccc2CCN(C)C)n1` [Example 135, N-(4-(2-(2-(Dimethylamino)ethyl)phenyl)-2-methylpyrimidin-5-yl)-2-fluoro-5-(1-methyl-1H-pyrazol-3-yl)-4-(trifluoromethyl)benzamide] the IC50 was 0.57 nM. Work on `Cn1ccc(-c2cc(C(=O)Nc3cnc(CN4CCCOC4=O)nc3-c3ccccc3)c(F)cc2C(F)(F)F)n1` [Example 222, 2-fluoro-5-(1-methyl-1H-pyrazol-3-yl)-N-(2-((2-oxo-1,3-oxazinan-3-yl)methyl)-4-phenylpyrimidin-5-yl)-4-(trifluoromethyl)benzamide] yielded an IC50 of 0.22 nM. `C[C@@H](O)C(=O)N1CCc2nc(-c3ccccc3)c(NC(=O)c3ccc(C(F)(F)F)c(-c4ccn(C)n4)c3)cc2C1` [Example 163, (R)-N-(6-(2-hydroxypropanoyl)-2-phenyl-5,6,7,8-tetrahydro-1,6-naphthyridin-3-yl)-3-(1-methyl-1H-pyrazol-3-yl)-4-(trifluoromethyl)benzamide] showed an IC50 of 1.3 nM. `CC(=O)N1CCc2nc(-c3ccccc3)c(NC(=O)c3cc(-c4ncccn4)c(C(F)(F)F)cc3F)cc2C1` [Example 148, N-(6-acetyl-2-phenyl-5,6,7,8-tetrahydro-1,6-naphthyridin-3-yl)-2-fluoro-5-(pyrimidin-2-yl)-4-(trifluoromethyl)benzamide] was tested, and the IC50 was 3.3 nM. `O=C(Nc1cc(Cc2cnco2)cnc1-c1ccccc1)c1cc(-c2ncccn2)c(C(F)(F)F)cc1F` [Example 204, 2-fluoro-N-(5-(oxazol-5-ylmethyl)-2-phenylpyridin-3-yl)-5-(pyrimidin-2-yl)-4-(trifluoromethyl)benzamide] showed an IC50 of 8.3 nM. Compound `Cc1ncc(NC(=O)c2cccc(-n3nccc3C(F)(F)F)c2)c(-c2ccccc2)n1` [Example 14, N-(2-methyl-4-phenylpyrimidin-5-yl)-3-[5-(trifluoromethyl)-1H-pyrazol-1-yl]benzamide] has an IC50 of 590 nM. For `O=C(Nc1cc(-c2cccnc2)cnc1-c1ccccc1)c1ccc(C(F)(F)F)cc1` [Example 10, N-(6-phenyl-3,3′-bipyridin-5-yl)-4-(trifluoromethyl)benzamide], the IC50 was 1600 nM. `O=C(Nc1cc(OCc2ccncc2)cnc1-c1ccccc1)c1cc(-c2ncccn2)c(C(F)(F)F)cc1F` [Example 176, 2-fluoro-N-(2-phenyl-5-(pyridin-4-ylmethoxy)pyridin-3-yl)-5-(pyrimidin-2-yl)-4-(trifluoromethyl)benzamide] was tested, and the IC50 was 6.3 nM. For `Cn1ccc(-c2cc(C(=O)Nc3cnc(CN4CCCC4=O)nc3-c3ccccc3)c(F)cc2C(F)(F)F)n1` [Example 219, 2-fluoro-5-(1-methyl-1H-pyrazol-3-yl)-N-(2-((2-oxopyrrolidin-1-yl)methyl)-4-phenylpyrimidin-5-yl)-4-(trifluoromethyl)benzamide], the IC50 was 0.32 nM. Compound `Cn1ccc(-c2cc(C(=O)Nc3ccc(CNC(=O)C(O)CO)nc3-c3ccccc3)c(F)cc2C(F)(F)F)n1` (single isomer, unassigned) [Example 61, (S or R)-N-(6-((2,3-dihydroxypropanamido)methyl)-2-phenylpyridin-3-yl)-2-fluoro-5-(1-methyl-1H-pyrazol-3-yl)-4-(trifluoromethyl)benzamide] has an IC50 of 0.64 nM. With `Cn1ccc(-c2cc(C(=O)Nc3cnc(CCO)nc3-c3ccccc3)ccc2C(F)(F)F)n1` [Example 37, N-(2-(2-hydroxyethyl)-4-phenylpyrimidin-5-yl)-3-(1-methyl-1H-pyrazol-3-yl)-4-(trifluoromethyl)benzamide] the IC50 was 4 nM. Compound `Cn1ccc(-c2cc(C(=O)Nc3cnc(C4(C(N)=O)CC4)nc3-c3ccccc3)c(F)cc2C(F)(F)F)n1` [Example 119, N-(2-(1-carbamoylcyclopropyl)-4-phenylpyrimidin-5-yl)-2-fluoro-5-(1-methyl-1H-pyrazol-3-yl)-4-(trifluoromethyl)benzamide] has an IC50 of 7.9 nM. `NC(=O)Cc1ncc(NC(=O)c2cc(-c3cc[nH]n3)c(C(F)(F)F)cc2F)c(-c2ccccc2)n1` [Example 126, N-(2-(2-amino-2-oxoethyl)-4-phenylpyrimidin-5-yl)-2-fluoro-5-(1H-pyrazol-3-yl)-4-(trifluoromethyl)benzamide] was tested, and the IC50 was 17 nM. Work on `Cn1ccc(-c2cc(C(=O)Nc3cc4c(nc3-c3ccccc3)CNC4)c(F)cc2C(F)(F)F)n1` [Example 188, 2-Fluoro-5-(1-methyl-1H-pyrazol-3-yl)-N-(2-phenyl-6,7-dihydro-5H-pyrrolo[3,4-b]pyridin-3-yl)-4-(trifluoromethyl)benzamide] yielded an IC50 of 2.9 nM. Work on `Cn1ccc(-c2cc(C(=O)Nc3cnc(CN4CCN(S(C)(=O)=O)CC4)nc3-c3ccccc3)c(F)cc2C(F)(F)F)n1` [Example 182, 2-Fluoro-5-(1-methyl-1H-pyrazol-3-yl)-N-(2-((4-(methylsulfonyl)piperazin-1-yl)methyl)-4-phenylpyrimidin-5-yl)-4-(trifluoromethyl)benzamide] yielded an IC50 of 5.1 nM. `CCn1c(Cc2ncc(NC(=O)c3cc(-c4ccn(C)n4)c(C(F)(F)F)cc3F)c(-c3ccccc3)n2)n[nH]c1=O` [Example 180, N-(2-((4-ethyl-5-oxo-4,5-dihydro-1H-1,2,4-triazol-3-yl)methyl)-4-phenylpyrimidin-5-yl)-2-fluoro-5-(1-methyl-1H-pyrazol-3-yl)-4-(trifluoromethyl)benzamide] was tested, and the IC50 was 3.2 nM.
